The text below walks through data of patent publication US12121565B2, “Methods of treatment of specific cancers with NLRP3 inhibitors and anti-PD1/PD-L1 antibodies” (Duke University, priority 2019, dated 2024).

For assay [1], the system named is BRAFV600EPTEN−/− melanoma cells. The experiment in a line: MTT cell proliferation assay in culture. Particulars: NLRP3 inhibitor (MCC950) in culture. The assay is classed as cell-based, mouse. An excerpt:
FIG. 14A-H. (A) NLRP3 Western blot analysis of NTC and NLRP3KD BRAFV600EPTEN−/− melanoma cells. (B) Representative dot plots of PMN-MDSC and CD8+ T cell flow cytometry analysis of resected BRAFV600EPTEN^−/−-NTC and BRAFV600EPTEN^−/−-NLRP3KD stable cell lines. Representative of 2 independent experiments. (C) Top, MTT cell proliferation assay of BRAFV600EPTEN^−/−-NTC, BRAFV600EPTEN−/−-NLRP3KD, BRAFV600EPTEN^−/−-PDL1KD stable cell lines in culture. ns, non-significant. Bottom, MTT cell proliferation assay of BRAFV600EPTEN−/−melanoma cells following treatment with NLRP3 inhibitor (MCC950) in culture. Each performed in triplicate. (D) Tumor growth curve of BRAFV600EPTEN^−/−-NLRP3KDmelanomas with CD8+ T cell ablation. Mice treated with anti-CD8 ab ip daily×3 days followed by anti-CD8 ab one week later (gray boxes). BRAFV600EPTEN^−/−-NTC control tumors also included (n=5). (E) Plasma HSP70 ELISA of BRAFV600EPTEN^−/− melanoma-bearing mice following treatment with IgG isotype control ab, anti-PD-1 ab, or anti-PD-1 ab+MCC950 NLRP3 inhibitor (NLRP3i) (n=4/group). NTC, non-targeted control. KD, knockdown. (F) IL-1β qrt-PCR analysis of BRAFV600EPTEN−/− melanoma cells (n=3). Data normalized to TLR9 expression. (G) Above, IL-1β ELISA of BRAFV600EPTEN−/−-melanoma cell line supernatant after IFNγ/anti-PD-L1 ab treatment in vitro (n=3). […]
On the technique in general: Tetrazolium assays rely on reduction of a dye to a coloured formazan, in cell work by metabolically active cells.

Assay [2] concerns syngeneic BRAFV600E PTEN−/− melanomas. The experiment in a line: Syngeneic transplant tumor study: tumor growth, flow cytometry, Western blot, ELISA, qRT-PCR. Format: in vivo, mouse. As to the method: B6.Cg-Braf^tm1MmcmPten^tm1Hwu Tg(Tyr-cre/ERT2 H-2^b)13Bos/BosJ transgenic mice were subdermally injected with 4-Hydroxytomoxifen (4-HT) (Sigma, H6278-50MG CCF, 38.75 μg/mouse) to induce primary melanoma development at the base of the tail. Mice were randomly assigned to treatment cohorts once tumor volumes reached 64 mm^3 (19, 30, 50). Depending on the experiment, mice were treated with the following agents: CXCR2 inhibitor (AZD5069, AstraZeneca) at 100 mg/kg per os (po) twice daily, NLRP3 inhibitor (MCC950) 10 mg/kg i.p every other day, anti-PD1 ab (BioXCell) or rat IgG2a isotype control (BioXCell) at 200 μg by i.p. injection every 3 days, Dacarbazine (50 mg/kg or 75 mg/kg, Sigma-Aldrich, D2390) by i.p. injection once every other day. Melanoma growth was monitored by orthogonal caliper measurements every 3 days.
Braf^V600EPten^−/−, Braf^V600EPten^−/−-NTC, Braf^V600EPten^−/−-Wnt5a^KD, Braf^V600EPten^−/−-CXCL5^KD, Braf^V600EPten^−/−-PDL1^KD, and Braf^V600EPten^−/−-NLRP3^KD cell lines (0.5×10^5-1×10^5 cells) were implanted by subcutaneous injection into the base of the tail of syngeneic C57BL/6 mice. Tumor growth was monitored by caliper measurement every 3 days and treatment was initiated when tumor volumes reached 64 mm^3. Tumor volume was calculated according to the formula: cm^3=[(length (cm)×(width (cm))^2]/2.
One million cells were stained with 1 μg per million cells of each fluorochrome conjugated antibodies or commercially available dyes according to the standard protocols and analyzed using a FACSCanto II or LSRII (Becton Dickinson). Cells were stained with Fc receptor blocking antibodies followed by a live/dead discriminator (CellTrace Violet, ThermoFisher, C34571), then by conjugated antibodies for 30 min at 4° C. Cell number was calculated by hemocytometer. Flow cytometry data was analyzed using Flowjo software v10.3.
Tumor tissue or cells were homogenized in NP40 lysis buffer (Sigma-Aldrich) supplemented with complete protease inhibitor and phosphatase inhibitor (Roche). Cells were lysed in Laemmli sample buffer after treatment and subjected to SDS-polyacrylamide gel electrophoresis. After transferring onto PVDF membranes (Bio-Rad), monoclonal and polyclonal primary antibodies and appropriate HRP-conjugated secondary antibodies were utilized for blotting. For the immunoprecipitation assays, cells were lysed with TBS buffer (50 mM Tris-HCl (pH 7.4), 150 mM NaCl) containing 0.5% Triton X-100, EDTA-free protease inhibitor cocktail and phosphatase inhibitor cocktail, precleared with protein A/G beads, and then incubated with 1 μg of appropriate antibodies or isotype control IgG on a rotator overnight at 4° C. then incubated with protein A/G-agarose at 4° C. for 1 hour. After 5 washes with TBS buffer, immunoprecipitated complexes were eluted in sample buffer by boiling and subjected to immunoblot analysis. Immunoblots were visualized by chemiluminescence substrate (ThermoFisher) and imaged by a ChemiDoc XRSplus system (BioRad). For the ASC polymerization assay, cells were lysed with TBS buffer containing 0.5% Triton X-100, EDTA-free protease inhibitor cocktail and phosphatase inhibitor cocktail. The lysates were centrifuged at 4,000 g at 4° C. for 15 min. For the detection of ASC oligomerization, the Triton-insoluble pellets were washed twice with TBS buffer and then resuspended in 500 μl TBS buffer. The resuspended pellets were crosslinked for 30 min at room temperature with 2 mM Disuccinimidyl suberate (DSS) (Thermo Fisher Scientific, 21655) and then centrifuged for 15 min at 6,000 g. The pellets were dissolved in SDS sample buffer.
Total RNA was isolated by RNeasy Plus Mini Kit (Qiagen, 74134). RNA (1000 ng) was used in cDNA Synthesis (iScript Reverse Transcription Supermix, BioRad, 1708841). Data analysis utilized the PrimePCR Analysis Software (BioRad). […]
A general note: In flow cytometry, cells or beads pass a laser one at a time.

Setting [3] is: combined anti-PD-1 Ab and NLRP3 inhibitor.

With `CC(C)(O)c1coc(S(=O)(=O)NC(=O)Nc2c3c(cc4c2CCC4)CCC3)c1` [MCC950, N-[[(1,2,3,5,6,7-hexahydro-s-indacen-4-yl)amino]carbonyl]-4-(1-hydroxy-1-methylethyl)-2-furansulfonamide], in assay [1], the “impact on tumor cell proliferation in vitro” value is “neither pharmacologic inhibition of NLRP3 nor genetic silencing of Nlrp3 had any impact”. The “PMN-MDSC recruitment in response to anti-PD-1 Ab therapy” value in assay [2] (NLRP3 inhibition combined with anti-PD-1 Ab (200 μg i.p. every 3 days)) is recorded as “diminished”. Moreover, the “levels of tumor-infiltrating CD8+ T cells” value in assay [2] (NLRP3 inhibitor MCC950 combined with anti-PD-1 Ab) is listed as “enhanced”. For the same compound, in assay [2] (NLRP3 inhibitor MCC950 combined with anti-PD-1 Ab, beyond what was observed with anti-PD-1 Ab monotherapy), the “tumor progression in vivo” value is recorded as “suppressed”. Moreover, the “HSP70 release (plasma ELISA)” value in assay [2] (combined anti-PD-1 Ab and NLRP3 inhibition) is reported as “suppressed”. Further, in assay [2] (setting [3]), the “Cxcl5 levels (tumor qRT-PCR)” value is given as “suppressed”, the “Wnt5a expression (whole-tissue Western blot)” value is on record as “suppressed”, the “caspase-1 cleavage (whole-tissue Western blot)” value is given as “suppressed” and the “expression of the cytolytic T cell marker Gzmb (tumor qRT-PCR)” value is recorded as “enhanced”.
